Data as given in patent US20050032873A1, “3-Amino chroman and 2-amino tetralin derivatives” (Wyeth, priority 2003, published 2005).
Structures can show the parent of a compound that is named as a salt.

COC(=O)c1ccc(F)c2c1C[C@@H](N(CCCCc1c[nH]c3ccc(F)cc13)C1CCC1)CO2 (as salt: hydrochloride) [Compound 58b, Methyl (3R)-3-{cyclobutyl[4-(5-fluoro-1H-indol-3-yl)butyl]amino}-8-fluorochromane-5-carboxylate]
melting point: 209 °C (dec.)

CNC(=O)c1ccc(F)c2c1CC(N(CCCc1c[nH]c3ccc(F)cc13)C1CCC1)CO2 (centres unmarked) (as salt: hydrochloride) [Compound 59, 3-{cyclobutyl[3-(5-fluoro-1H-indol-3-yl)propyl]amino}-8-fluoro-N-methylchromane-5-carboxamide]
melting point: 132 °C (dec.)

CCNC(=O)c1ccc(F)c2c1CC(N(CCCc1c[nH]c3ccc(F)cc13)C1CCC1)CO2 (centres unmarked) (as salt: hydrochloride) [Compound 60, 3-{cyclobutyl[3-(5-fluoro-1H-indol-3-yl)propyl]amino}-N-ethyl-8-fluorochromane-5-carboxamide]
melting point: 130 °C (dec.)

CCCNC(=O)c1ccc(F)c2c1CC(N(CCCc1c[nH]c3ccc(F)cc13)C1CCC1)CO2 (centres unmarked) (as salt: hydrochloride) [Compound 61, 3-{cyclobutyl[3-(5-fluoro-1H-indol-3-yl)propyl]amino}-8-fluoro-N-propylchromane-5-carboxamide]
melting point: 67 °C (dec.)

CCCCNC(=O)c1ccc(F)c2c1CC(N(CCCc1c[nH]c3ccc(F)cc13)C1CCC1)CO2 (centres unmarked) (as salt: hydrochloride) [Compound 62, N-butyl-3-{cyclobutyl[3-(5-fluoro-1H-indol-3-yl)propyl]amino}-8-fluorochromane-5-carboxamide]
melting point: 106 °C (dec.)

CC(C)NC(=O)c1ccc(F)c2c1CC(N(CCCc1c[nH]c3ccc(F)cc13)C1CCC1)CO2 (centres unmarked) (as salt: hydrochloride) [Compound 63, 3-{cyclobutyl[3-(5-fluoro-1H-indol-3-yl)propyl]amino}-8-fluoro-N-isopropylchromane-5-carboxamide]
melting point: 127 °C (dec.)

O=C(NC1CC1)c1ccc(F)c2c1CC(N(CCCc1c[nH]c3ccc(F)cc13)C1CCC1)CO2 (centres unmarked) (as salt: hydrochloride) [Compound 64, 3-{cyclobutyl[3-(5-fluoro-1H-indol-3-yl)propyl]amino}-N-cyclopropyl-8-fluorochromane-5-carboxamide]
melting point: 134 °C (dec.)

O=C(NC1CCC1)c1ccc(F)c2c1CC(N(CCCc1c[nH]c3ccc(F)cc13)C1CCC1)CO2 (centres unmarked) (as salt: hydrochloride) [Compound 65, N-cyclobutyl-3-{cyclobutyl[3-(5-fluoro-1H-indol-3-yl)propyl]amino}-8-fluorochromane-5-carboxamide]
melting point: 135 °C (dec.)

O=C(NC1CCCC1)c1ccc(F)c2c1CC(N(CCCc1c[nH]c3ccc(F)cc13)C1CCC1)CO2 (centres unmarked) (as salt: hydrochloride) [Compound 66, 3-{cyclobutyl[3-(5-fluoro-1H-indol-3-yl)propyl]amino}-N-cyclopentyl-8-fluorochromane-5-carboxamide]
melting point: 133 °C (dec.)

O=C(NC1CCCCC1)c1ccc(F)c2c1CC(N(CCCc1c[nH]c3ccc(F)cc13)C1CCC1)CO2 (centres unmarked) (as salt: hydrochloride) [Compound 67, 3-{cyclobutyl[3-(5-fluoro-1H-indol-3-yl)propyl]amino}-N-cyclohexyl-8-fluorochromane-5-carboxamide]
melting point: 134 °C (dec.)

O=C(NCC1CC1)c1ccc(F)c2c1CC(N(CCCc1c[nH]c3ccc(F)cc13)C1CCC1)CO2 (centres unmarked) (as salt: hydrochloride) [Compound 68, 3-{cyclobutyl[3-(5-fluoro-1H-indol-3-yl)propyl]amino}-N-(cyclopropylmethyl)-8-fluorochromane-5-carboxamide]
melting point: 114 °C (dec.)

O=C(NCc1ccccc1)c1ccc(F)c2c1CC(N(CCCc1c[nH]c3ccc(F)cc13)C1CCC1)CO2 (centres unmarked) (as salt: hydrochloride) [Compound 69, N-benzyl-3-{cyclobutyl[3-(5-fluoro-1H-indol-3-yl)propyl]amino}-8-fluorochromane-5-carboxamide]
melting point: 124 °C (dec.)

O=C(Nc1ccccc1)c1ccc(F)c2c1CC(N(CCCc1c[nH]c3ccc(F)cc13)C1CCC1)CO2 (centres unmarked) (as salt: hydrochloride) [Compound 70, 3-{cyclobutyl[3-(5-fluoro-1H-indol-3-yl)propyl]amino}-8-fluoro-N-phenylchromane-5-carboxamide]
melting point: 136 °C (dec.)

CCCCCN(CCCc1c[nH]c2ccc(F)cc12)C1COc2c(F)ccc(C(N)=O)c2C1 (centres unmarked) (as salt: hydrochloride) [Compound 71, 8-fluoro-3-[[3-(5-fluoro-1H-indol-3-yl)propyl](pentyl)amino]chromane-5-carboxamide]
melting point: 128 °C (dec.)

CCCCN(CCCc1c[nH]c2ccc(F)cc12)C1COc2c(F)ccc(C(N)=O)c2C1 (centres unmarked) (as salt: hydrochloride) [Compound 72, 3-{butyl[3-(5-fluoro-1H-indol-3-yl)propyl]amino}-8-fluorochromane-5-carboxamide]
melting point: 126 °C (dec.)

CN(C)C(=O)c1ccc(F)c2c1CC(N(CCCc1c[nH]c3ccc(F)cc13)C1CCC1)CO2 (centres unmarked) (as salt: hydrochloride) [Compound 73, 3-{cyclobutyl[3-(5-fluoro-1H-indol-3-yl)propyl]amino}-8-fluoro-N,N-dimethylchromane-5-carboxamide]
melting point: 126 °C (dec.)

NC(=O)c1ccc(F)c2c1CC(N(CCCc1c[nH]c3ccc(F)cc13)Cc1ccccc1)CO2 (centres unmarked) (as salt: hydrochloride) [Compound 74, 3-{benzyl[3-(5-fluoro-1H-indol-3-yl)propyl]amino}-8-fluorochromane-5-carboxamide]
melting point: 142 to 150 °C (dec.)

NC(=O)c1ccc(F)c2c1CC(NCCc1c[nH]c3ccc(F)cc13)CO2 (centres unmarked) (as salt: hydrochloride) [Compound 75, 8-fluoro-3-{[2-(5-fluoro-1H-indol-3-yl)ethyl]amino}chromane-5-carboxamide]
melting point: 134 °C (dec.)

CCN(CCc1c[nH]c2ccc(F)cc12)C1COc2c(F)ccc(C(N)=O)c2C1 (centres unmarked) (as salt: hydrochloride) [Compound 76, 3-{ethyl[2-(5-fluoro-1H-indol-3-yl)ethyl]amino}-8-fluorochromane-5-carboxamide]
melting point: 127 °C (dec.)

CCCN(CCc1c[nH]c2ccc(F)cc12)C1COc2c(F)ccc(C(N)=O)c2C1 (centres unmarked) (as salt: hydrochloride) [Compound 77, 8-fluoro-3-[[2-(5-fluoro-1H-indol-3-yl)ethyl](propyl)amino]chromane-5-carboxamide]
melting point: 125 °C (dec.)

NC(=O)c1ccc(F)c2c1CC(N(CCc1c[nH]c3ccc(F)cc13)CC1CC1)CO2 (centres unmarked) (as salt: hydrochloride) [Compound 78, 3-{(cyclopropylmethyl)[2-(5-fluoro-1H-indol-3-yl)ethyl]amino}-8-fluorochromane-5-carboxamide]
melting point: 132 °C (dec.)

NC(=O)c1ccc(F)c2c1CC(NCCCCc1c[nH]c3ccc(F)cc13)CO2 (centres unmarked) (as salt: hydrochloride) [Compound 79, 8-fluoro-3-{[4-(5-fluoro-1H-indol-3-yl)butyl]amino}chromane-5-carboxamide]
melting point: 52 °C (dec.)

CCN(CCCCc1c[nH]c2ccc(F)cc12)C1COc2c(F)ccc(C(N)=O)c2C1 (centres unmarked) (as salt: hydrochloride) [Compound 80, 3-{ethyl[4-(5-fluoro-1H-indol-3-yl)butyl]amino}-8-fluorochromane-5-carboxamide]
melting point: 110 °C (dec.)

CCCN(CCCCc1c[nH]c2ccc(F)cc12)C1COc2c(F)ccc(C(N)=O)c2C1 (centres unmarked) (as salt: hydrochloride) [Compound 81, 8-fluoro-3-[[4-(5-fluoro-1H-indol-3-yl)butyl](propyl)amino]chromane-5-carboxamide]
melting point: 115 °C (dec.)

NC(=O)c1ccc(F)c2c1CC(N(CCCCc1c[nH]c3ccc(F)cc13)C1CCC1)CO2 (centres unmarked) (as salt: hydrochloride) [Compound 83, 3-{cyclobutyl[4-(5-fluoro-1H-indol-3-yl)butyl]amino}-8-fluorochromane-5-carboxamide]
melting point: 122 °C (dec.)

NC(=O)c1ccc(F)c2c1C[C@@H](N(CCCCc1c[nH]c3ccc(F)cc13)C1CCC1)CO2 (as salt: hydrochloride) [Compound 83a, (3R)-3-{cyclobutyl[4-(5-fluoro-1H-indol-3-yl)butyl]amino}-8-fluorochromane-5-carboxamide]
melting point: 128 °C (dec.)

NC(=O)c1ccc(F)c2c1C[C@H](N(CCCCc1c[nH]c3ccc(F)cc13)C1CCC1)CO2 (as salt: hydrochloride) [Compound 83b, (3S)-3-{cyclobutyl[4-(5-fluoro-1H-indol-3-yl)butyl]amino}-8-fluorochromane-5-carboxamide]
melting point: 128 °C (dec.)

CNC(=O)c1ccc(F)c2c1CC(NCCc1c[nH]c3ccc(F)cc13)CO2 (centres unmarked) (as salt: hydrochloride) [Compound 84, 8-fluoro-3-{[2-(5-fluoro-1H-indol-3-yl)ethyl]amino}-N-methylchromane-5-carboxamide]
melting point: 148 °C (dec.)

CCN(CCc1c[nH]c2ccc(F)cc12)C1COc2c(F)ccc(C(=O)NC)c2C1 (centres unmarked) (as salt: hydrochloride) [Compound 85, 3-{ethyl[2-(5-fluoro-1H-indol-3-yl)ethyl]amino}-8-fluoro-N-methylchromane-5-carboxamide]
melting point: 125 °C (dec.)

CNC(=O)c1ccc(F)c2c1CC(N(CCc1c[nH]c3ccc(F)cc13)CC1CC1)CO2 (centres unmarked) (as salt: hydrochloride) [Compound 86, 3-{(cyclopropylmethyl)[2-(5-fluoro-1H-indol-3-yl)ethyl]amino}-8-fluoro-N-methylchromane-5-carboxamide]
melting point: 138 °C (dec.)

CNC(=O)c1ccc(F)c2c1CC(N(CCc1c[nH]c3ccc(F)cc13)C1CCC1)CO2 (centres unmarked) (as salt: hydrochloride) [Compound 87, 3-{cyclobutyl[2-(5-fluoro-1H-indol-3-yl)ethyl]amino}-8-fluoro-N-methylchromane-5-carboxamide]
melting point: 131 °C (dec.)

CNC(=O)c1ccc(F)c2c1CC(NCCCc1c[nH]c3ccc(F)cc13)CO2 (centres unmarked) (as salt: hydrochloride) [Compound 88, 8-fluoro-3-{[3-(5-fluoro-1H-indol-3-yl)propyl]amino}-N-methylchromane-5-carboxamide]
melting point: 148 °C (dec.)
